According to patent publication US20230295087A1, “AGONISTS OF ROR GAMMAt” (BRISTOL-MYERS SQUIBB COMPANY, priority 2019, published 2023):

Molecular target: T1, human RORgT (Homo sapiens, UniProt P51449)
T1 construct: expressed in transfected cells
T1 sequence (P51449 267-516): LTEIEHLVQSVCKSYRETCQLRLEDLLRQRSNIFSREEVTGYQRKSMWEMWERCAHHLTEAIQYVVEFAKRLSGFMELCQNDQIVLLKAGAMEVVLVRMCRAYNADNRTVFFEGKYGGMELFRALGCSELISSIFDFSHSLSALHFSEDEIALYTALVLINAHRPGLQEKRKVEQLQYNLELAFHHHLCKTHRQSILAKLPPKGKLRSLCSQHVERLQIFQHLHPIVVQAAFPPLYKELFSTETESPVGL
Assay: RORgT Gal4 Luciferase Reporter Gene Assay
Assay type: cell-based
Conditions: engineered Jurkat cells overexpressing RORgT (LBD or full length) fused with Gal4 Luc reporter; 18 hours at 37° C.; luminescence
Outline: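 Jurkat cells expressing Gal4 Luc with either RORgT LBD (aa267-516) or full-length human RORgT, 10,000 cells/well, treated with compound (40 µM to 0.67 nM final, 3-fold dilutions) for 18 h at 37° C. Steady-Glo luminescence read; inhibition of constitutive activity as % signal-window reduction relative to a control compound.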

EC50 [nM] | SMILES
111 | COC(=O)[C@H]1CC[C@H](C(=O)N2CC[C@@]3(S(=O)(=O)c4ccc(F)cc4)c4ccc(OCc5cc(Cl)ccc5Cl)cc4CC[C@@H]23)CC1 [Example 203, methyl (1r,4r)-4-[(3aR,9bR)-7-[(2,5-dichlorophenyl)methoxy] -9b-(4-fluorobenzenesulfonyl)-1H,2H,3H,3aH,4H,5H,9bH-benzo[e]indole-3-carbonyl] cyclohexane-1-carboxylate]
19 | NC(=O)N1CCC(C(=O)N2CC[C@@]3(S(=O)(=O)c4ccc(F)cc4)c4ccc(OCc5c(Cl)cccc5Cl)cc4CC[C@@H]23)CC1 [Example 172, 4-[(3aR,9bR)-7-[(2,6-dichlorophenyl)methoxy]-9b-(4-fluorobenzenesulfonyl)-1H,2H,3H,3aH,4H,5H,9bH-benzo[e]indole-3-carbonyl]piperidine-1-carboxamide]
6 | O=C(C1CCS(=O)(=O)C1)N1CC[C@@]2(S(=O)(=O)c3ccc(F)cc3)c3ccc(OCc4c(F)cccc4Cl)cc3CC[C@@H]12 (stereo partly drawn) [Example 18, 3-[(3aR,9bR)-7-[(2-chloro-6-fluorophenyl)methoxy]-9b-(4-fluorobenzenesulfonyl)-1H,2H,3H,3aH,4H,5H,9bH-benzo[e]indole-3-carbonyl]-1λ^6-thiolane-1,1-dione]
4.3 | N#CCCN1C(=O)CC[C@H]1C(=O)N1CC[C@@]2(S(=O)(=O)c3ccc(F)cc3)c3ccc(OCc4cc(Cl)ccc4Cl)cc3CC[C@@H]12 [Example 157, 3-[(2S)-2-[(3aR,9bR)-7-[(2,5-dichlorophenyl)methoxy]-9b-(4-fluorobenzenesulfonyl)-1H,2H,3H,3aH,4H,5H,9bH-benzo[e]indole-3-carbonyl]-5-oxopyrrolidin-l-yl]propanenitrile]
12 | NC(=O)N1CCC(C(=O)N2CC[C@@]3(S(=O)(=O)c4ccc(F)cc4)c4ccc(OCc5cc(F)ccc5Cl)cc4CC[C@@H]23)CC1 [Example 179, 4-[(3aR,9bR)-7-[(2-chloro-5-fluorophenyl)methoxy]-9b-(4-fluorobenzenesulfonyl)-1H,2H,3H,3aH,4H,5H,9bH-benzo[e]indole-3-carbonyl]piperidine-1-carboxamide]
13 | O=C(N1CC[C@@]2(S(=O)(=O)c3ccccc3)c3ccc(OCc4c(Cl)cccc4Cl)cc3CC[C@@H]12)C1(O)CCOCC1 [Example 96, 4-[(3aR,9bR)-9b-(benzenesulfonyl)-7-[(2,6-dichlorophenyl)methoxy]-1H,2H,3H,3aH,4H,5H,9bH-benzo[e]indole-3-carbonyl]oxan-4-ol]
11 | O=C(CN1CCS(=O)(=O)CC1)N1CC[C@@]2(S(=O)(=O)c3ccc(F)cc3)c3ccc(OCc4c(F)cccc4Cl)cc3CC[C@@H]12 [Example 165, 4-{2-[(3aR,9bR)-7-[(2-chloro-6-fluorophenyl)methoxy]-9b-(4-fluorobenzenesulfonyl)-1H,2H,3H,3aH,4H,5H,9bH-benzo[e]indol-3-yl]-2-oxoethyl}-1λ^6-thiomorpholine-1,1-dione]
620 | CC(C)S(=O)(=O)CC(=O)N1CC[C@@]2(S(=O)(=O)c3ccccc3)c3ccc(OCc4c(Cl)cccc4Cl)cc3CC[C@@H]12 [Example 102, 1-[(3aR,9bR)-9b-(benzenesulfonyl)-7-[(2,6-dichlorophenyl)methoxy]-1H,2H,3H,3aH,4H,5H,9bH-benzo[e]indol-3-yl]-2-(propane-2-sulfonyl)ethan-1-one]
7.7 | O=C(C1CCS(=O)(=O)CC1)N1CC[C@@]2(S(=O)(=O)c3ccccc3)c3ccc(OCc4c(F)cc(F)cc4Cl)cc3CC[C@@H]12 [Example 149, 4-[(3aR,9bR)-9b-(benzenesulfonyl)-7-[(2-chloro-4,6-difluorophenyl)methoxy]-1H,2H,3H,3aH,4H,5H,9bH-benzo[e]indole-3-carbonyl]-1λ^6-thiane-1,1-dione]
199 | CC(C)(O)C(=O)N1CC[C@@]2(S(=O)(=O)c3ccccc3)c3ccc(OCc4c(Cl)cccc4Cl)cc3CC[C@@H]12 [Example 72, 1-[(3aR,9bR)-9b-(benzenesulfonyl)-7-[(2,6-dichlorophenyl)methoxy]-1H,2H,3H,3aH,4H,5H,9bH-benzo[e]indol-3-yl]-2-hydroxy-2-methylpropan-1-one]
210 | O=C1CCCN1CC(=O)N1CC[C@@]2(S(=O)(=O)c3ccccc3)c3ccc(OCc4c(Cl)cccc4Cl)cc3CC[C@@H]12 [Example 79, 1-{2-[(3aR,9bR)-9b-(benzenesulfonyl)-7-[(2,6-dichlorophenyl)methoxy]-1H,2H,3H,3aH,4H,5H,9bH-benzo[e]indol-3-yl]-2-oxoethyl}pyrrolidin-2-one]
1.5 | O=C(C1CCC(B(O)O)CC1)N1CC[C@@]2(S(=O)(=O)c3ccc(F)cc3)c3ccc(OCc4c(F)cccc4C(F)(F)F)cc3CC[C@@H]12 (stereo partly drawn) [Example 13, (4-((3aR,9bR)-7-((2-fluoro-6-(trifluoromethyl)benzyl)oxy)-9b-((4-fluorophenyl)sulfonyl)-2,3,3a,4,5,9b-hexahydro-1H-benzo[e]indole-3-carbonyl)cyclohexyl)boronic acid]
6.8 | Cc1ccccc1Oc1ccc2c(c1)CC[C@H]1N(C(=O)[C@]3(C)CC[C@@H](C(=O)O)CC3)CC[C@@]21S(=O)(=O)c1ccc(F)cc1 [Example 50, (1r,4r)-4-[(3aR,9bR)-9b-(4-fluorobenzenesulfonyl)-7-(2-methylphenoxy)-1H,2H,3H,3aH,4H,5H,9bH-benzo[e]indole-3-carbonyl]-4-methylcyclohexane-1-carboxylic acid]
17 | C[C@]1(C(=O)N2CC[C@@]3(S(=O)(=O)c4ccc(F)cc4)c4ccc(OCc5c(F)cccc5Cl)cc4CC[C@@H]23)CC[C@H](C(=O)O)CC1 [Example 9, (1R,4r)-4-((3aR,9bR)-7-((2-chloro-6-fluorobenzyl)oxy)-9b-((4-fluorophenyl)sulfonyl)-2,3,3a,4,5,9b-hexahydro-1H-benzo[e]indole-3-carbonyl)-4-methylcyclohexanecarboxylic acid]
197 | CS(=O)(=O)CCNC(=O)N1CC[C@@]2(S(=O)(=O)c3ccccc3)c3ccc(OCc4c(Cl)cccc4Cl)cc3CC[C@@H]12 [Example 92, (3aR,9bR)-9b-(benzenesulfonyl)-7-[(2,6-dichlorophenyl)methoxy]-N-(2-methanesulfonylethyl)-1H,2H,3H,3aH,4H,5H,9bH-benzo[e]indole-3-carboxamide]
46 | O=C(O)[C@H]1CC[C@H](C(=O)N2CC[C@@]3(S(=O)(=O)c4ccc(F)cc4)c4ccc(OCc5ccc(F)cc5Cl)cc4CC[C@@H]23)CC1 [Example 193, (1r,4r)-4-[(3aR,9bR)-7-[(2-chloro-4-fluorophenyl)methoxy]-9b-(4-fluorobenzenesulfonyl)-1H,2H,3H,3aH,4H,5H,9bH-benzo[e]indole-3-carbonyl]cyclohexane-1-carboxylic acid]
140 | NC(=O)N1CCC(C(=O)N2CC[C@@]3(S(=O)(=O)c4ccccc4)c4ccc(OCc5ccccc5)cc4CC[C@@H]23)CC1 [Example 78, 4-[(3aR,9bR)-9b-(benzenesulfonyl)-7-(benzyloxy)-1H,2H,3H,3aH,4H,5H,9bH-benzo[e]indole-3-carbonyl]piperidine-1-carboxamide]
110 | NS(=O)(=O)CC(=O)N1CC[C@@]2(S(=O)(=O)c3ccc(F)cc3)c3ccc(OCc4cc(F)c(F)cc4Cl)cc3CC[C@@H]12 [Example 211, 2-[(3aR,9bR)-7-[(2-chloro-4,5-difluorophenyl)methoxy]-9b-(4-fluorobenzenesulfonyl)-1H,2H,3H,3aH,4H,5H,9bH-benzo[e]indol-3-yl]-2-oxoethane-1-sulfonamide]
76 | CN1CCC(C(=O)N2CC[C@@]3(S(=O)(=O)c4ccccc4)c4ccc(OCc5c(Cl)cccc5Cl)cc4CC[C@@H]23)CC1 [Example 61, 4-[(3aR,9bR)-9b-(benzenesulfonyl)-7-[(2,6-dichlorophenyl)methoxy]-1H,2H,3H,3aH,4H,5H,9bH-benzo[e]indole-3-carbonyl]-I-methylpiperidine]
10 | O=C(C1CCS(=O)(=O)C1)N1CC[C@@]2(S(=O)(=O)c3ccc(F)cc3)c3ccc(OCc4c(F)cccc4C(F)(F)F)cc3CC[C@@H]12 (stereo partly drawn) [Example 187, 3-[(3aR,9bR)-7-{[2-fluoro-6-(trifluoromethyl)phenyl]methoxy}-9b-(4-fluorobenzenesulfonyl)-1H,2H,3H,3aH,4H,5H,9bH-benzo[e]indole-3-carbonyl]-1λ^6-thiolane-1,1-dione]
5.8 | O=C(C1CCS(=O)(=O)CC1)N1CC[C@@]2(S(=O)(=O)c3ccc(F)cc3)c3ccc(CCc4c(Cl)cccc4Cl)cc3CC[C@@H]12 [Example 161, 4-[(3aR,9bR)-7-[2-(2,6-dichlorophenyl)ethyl]-9b-(4-fluorobenzenesulfonyl)-1H,2H,3H,3aH,4H,5H,9bH-benzo[e]indole-3-carbonyl]-1λ^6-thiane-1,1-dione]
